In ChEMBL document CHEMBL5236586, “Novel ginsenoside derivatives induce apoptosis in HepG-2 cells via the MDM2-p53 signaling pathway” (Bioorg Med Chem Lett, 2022):
Calls of active or inactive are those of the source. No cut-off for these calls is given here.

Tests used:
HepG2 [1] = test: Antiproliferative activity against human HepG2 cells assessed as inhibition of cell growth; format: functional, cell-based
A549 = test: Antiproliferative activity against human A549 cells assessed as inhibition of cell proliferation by MTT assay; format: functional, cell-based
HepG2 [2] = test: Potency index, ratio of PD IC50 to test compound IC50 for antiproliferative activity against human HepG2 cells assessed as inhibition of cell proliferation by MTT assay; format: functional
PC-3 = test: Antiproliferative activity against human PC-3 cells assessed as inhibition of cell proliferation by MTT assay; format: functional, cell-based
HepG2 [3] = test: Antiproliferative activity against human HepG2 cells assessed as inhibition of cell proliferation by MTT assay; format: functional, cell-based
[4] = Cytotoxicity against mouse L929 cells assessed as inhibition of cell proliferation by MTT assay; format: toxicity, cell-based
HepG2 [5] = test: Induction of apoptosis in human HepG2 cells assessed as increase in cleaved caspase-3 level at 1.25 to 5 uM incubated for 12 hrs by Western blot analysis; format: functional, cell-based; details: dose 1.25-5 µM
HepG2 [6] = test: Effect on cell morphology in human HepG2 cells assessed as cell shrinkage at 1.25 to 5 uM by DAPI staining based analysis; format: functional; details: dose 1.25-5 µM
HepG2 [7] = test: Induction of apoptosis in human HepG2 cells assessed as increase in cleaved PARP level at 1.25 to 5 uM incubated for 12 hrs by Western blot analysis; format: functional, cell-based; details: dose 1.25-5 µM
[8] = target: E3 ubiquitin-protein ligase Mdm2 (Homo sapiens) (UniProt Q00987); test: Inhibition of MDM2 in human HepG2 cells assessed as decrease in MDM2 protein level at 1.25 to 5 uM incubated for 12 hrs by Western blot analysis; format: cell-based; details: dose 1.25-5 µM
Chain of E3 ubiquitin-protein ligase Mdm2 (Homo sapiens) (Q00987 whole entry, looked up): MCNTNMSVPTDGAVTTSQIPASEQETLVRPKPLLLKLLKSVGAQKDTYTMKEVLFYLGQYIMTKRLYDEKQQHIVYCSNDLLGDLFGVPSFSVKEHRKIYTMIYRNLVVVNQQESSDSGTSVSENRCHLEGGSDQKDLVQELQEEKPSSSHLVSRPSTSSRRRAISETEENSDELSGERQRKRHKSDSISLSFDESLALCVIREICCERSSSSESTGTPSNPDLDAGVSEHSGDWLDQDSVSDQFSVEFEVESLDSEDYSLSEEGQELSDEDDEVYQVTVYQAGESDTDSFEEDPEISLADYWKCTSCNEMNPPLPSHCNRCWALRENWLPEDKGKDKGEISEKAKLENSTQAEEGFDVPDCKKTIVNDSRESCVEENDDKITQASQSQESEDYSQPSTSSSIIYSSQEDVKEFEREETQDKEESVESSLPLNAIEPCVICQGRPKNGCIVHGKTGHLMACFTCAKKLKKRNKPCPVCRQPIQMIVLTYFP

HepG2 [9] = test: Induction of apoptosis in human HepG2 cells assessed as decrease in caspase-3 expression level at 1.25 to 5 uM incubated for 12 hrs by Western blot analysis; format: functional, cell-based; details: dose 1.25-5 µM
HepG2 [10] = test: Induction of apoptosis in human HepG2 cells assessed as decrease in Bcl-2 expression level at 1.25 to 5 uM incubated for 12 hrs by Western blot analysis; format: functional, cell-based; details: dose 1.25-5 µM
[11] = target: E3 ubiquitin-protein ligase Mdm2 (Homo sapiens) (UniProt Q00987); test: Inhibition of MDM2 in human HepG2 cells assessed as increase in p53 protein level at 1.25 to 5 uM incubated for 12 hrs by Western blot analysis; format: cell-based; details: dose 1.25-5 µM
HepG2 [12] = test: Induction of apoptosis in human HepG2 cells assessed as increase in Bax level at 1.25 to 5 uM incubated for 12 hrs by Western blot analysis; format: functional, cell-based; details: dose 1.25-5 µM
HepG2 [13] = test: Induction of apoptosis in human HepG2 cells at 1.25 to 5 uM by DAPI staining based analysis; format: functional, cell-based; details: dose 1.25-5 µM
HepG2 [14] = test: Effect on cell morphology in human HepG2 cells at 5 uM by DAPI staining based analysis; format: functional

| Structure (SMILES) | IC50 (A549) [µM] | Ratio IC50 (HepG2 [2]) | IC50 (PC-3) [µM] | IC50 (HepG2 [3]) [µM] | IC50 [4] [µM] | other results |
| --- | --- | --- | --- | --- | --- | --- |
| N#Cc1c(-c2cn(-c3ccccc3)nc2-c2cc3ccccc3o2)[nH]c(NN)nc1=O | – | – | – | – | – | IC50 (HepG2 [1]): 12.5 µM |
| CC1(C)CCC[C@](C)([C@@H]2CC[C@]3(C)[C@@H]2[C@H](O)CC2[C@@]4(C)CC[C@H](OC(=O)CSc5nc(-c6ccc(C(F)(F)F)cc6)c(C#N)c(=O)[nH]5)C(C)(C)[C@@H]4CC[C@]23C)O1 (some centres not stated) | 7.03 | 21 | 8.74 | 3.16 | 68.7 | – |
| CC(C)c1ccc(-c2nc(SCC(=O)O[C@H]3CC[C@@]4(C)[C@@H](CC[C@]5(C)[C@H]4C[C@@H](O)[C@@H]4C([C@@]6(C)CCCC(C)(C)O6)CC[C@]45C)C3(C)C)[nH]c(=O)c2C#N)cc1 (some centres not stated) | 6.98 | 28 | 7.04 | 2.13 | 58.8 | Activity (HepG2 [5]): Active; Activity (HepG2 [6]): Active; Activity (HepG2 [7]): Active; Activity [8]: Active; Activity (HepG2 [9]): Active; Activity (HepG2 [10]): Active; Activity [11]: Active; Activity (HepG2 [12]): Active; Activity (HepG2 [13]): Active |
| O=c1[nH]cc(F)c(=O)[nH]1 [FLUOROURACIL] | 29.2 | – | – | – | > 100 | Activity (HepG2 [14]): inactive |
| Cc1ccc(-c2nc(SCC(=O)O[C@H]3CC[C@@]4(C)[C@@H](CC[C@]5(C)[C@H]4C[C@@H](O)[C@@H]4[C@H]([C@@]6(C)CCCC(C)(C)O6)CC[C@]45C)C3(C)C)[nH]c(=O)c2C#N)cc1 | 6.77 | 12 | 7.73 | 4.51 | 77.4 | – |
| CC1(C)CCC[C@](C)([C@@H]2CC[C@]3(C)[C@@H]2[C@H](O)C[C@H]2[C@@]4(C)CC[C@H](O)C(C)(C)[C@@H]4CC[C@]23C)O1 | 58.4 | – | 68.3 | 59.2 | > 100 | – |
